Legend:
endometriotic lesions = test: Induced murine endometriosis model, lesion count (Example 6); assay type: in vivo, C57BL/6 mice
Method: To determine whether treatment with HCQ alters the formation of endometriotic lesions, an induced model of murine endometriosis in which mice receive injections of uterine horn fragments that develop into lesions within 2 weeks was utilized. Receipient (endometriosis-induced) mice were treated with 60 mg/kg HCQ21 or phosphate-buffered saline (PBS, FIG. 12). This treatment was repeated once every seven days post-induction. Mice that were neither injected with uterine horn fragments nor treated were used as controls (FIG. 39). All of the mice were euthanized at the same time (14 days after endometriosis induction for both the PBS and HCQ treatment groups). Ectopic lesions that developed in the recipient mice (white arrow, FIGS. 40A-40B) were counted, measured, and collected for RNA and protein analysis, as well as for histological staining. […] The majority (87.5%) of endometriosis-induced mice developed lesions. At the time of collection, we noted that the endometriotic lesions varied in size, color, and location across the treatment groups.
Five-week-old C57BL/6 female mice were purchased from Jackson laboratories. All animals were maintained under standard 12 h photoperiod; food and water were available ad libitum throughout the study. […] Lesions were measured using a caliper. Volume of the lesions was calculated according to the formula: 4/3πr^2R.

peritoneal macrophages = test: Peritoneal macrophage flow cytometry (CD11b, F4/80); assay type: in vivo, mouse; conditions: HCQ-treated vs PBS-treated mice, p=0.0079
Method: The pellet obtained after centrifugation of the peritoneal fluid wash (see above) was utilized for macrophage staining. When necessary, red blood cell lysis was performed according to the manufacturer's protocol (eBioscience, San Diego, Calif.). The cell pellets were resuspended in 1 ml cold PBS and transferred to flow cytometry tubes. Samples were centrifuged for 1 min at 1,390 rpm. The supernatant was decanted and cells were resuspended in 100 μl of PBS. Cells were blocked using 0.5 μg of Mouse BD Fc, Block™ (#553141, BD Pharmingen, San Jose, Calif.) for 5 min on ice. The cells were incubated in 0.4 μg of APC Rat anti-mouse CD11b clone M1/70 (#553312, BD Pharmingen, San Jose, Calif.) and anti mPE-F4/80/EMR1 (# FAB5580C, R&D Systems, Minneapolis, Minn.)) at room temperature for 30 min, protected from light. After incubation, 700 μl of PBS was added to each tube and centrifuged for 1 min at 4° C. The supernatant was decanted, and the cells were resuspended in 300 μl in PBS and analyzed by flow cytometry.

[1] = tested on: uterine horns and ovaries; test: Murine tissue microarray H&E and immunohistochemistry (uterine horns, ovaries); assay type: in vivo, mouse
Text: To determine whether HCQ treatment alters the histopathology (tissue organization) of the recipient's uterine horns and other tissues, a murine tissue microarray (TMA) comprised of 113 cores and performed H&E as well as immunohistochemical staining was developed. The TMA contained uterine horns and ovaries from 10 PBS- and 10 HCQ-treated mice, as well as a mammary gland, a kidney, a lymph node and a small intestine from a PBS-treated mouse for use as antibody controls. […] Estrogen receptor α (ERα) was primarily localized to the epithelial cell layer of the endometrial glands, while progesterone receptor (PR) appeared to be evenly distributed between the stromal and epithelial cell compartments. However, the PR staining was comparatively much weaker to that for ERα. […] LC3B expression appeared more intense in HCQ-treated mice relative to PBS-treated mice in both the stromal and epithelial compartments (FIGS. 19A-19X). […] Collected samples were immediately preserved in 10% neutral buffered formalin at the animal facility. Samples were embedded in paraffin, sectioned, and transferred to slides for hematoxylin/eosin and immunohistochemical staining. A pathologist reviewed each case and delimited the region of interest, containing epithelial and stromal cells, for each specimen. A mouse tissue microarray was prepared at the Tissue Core Facility at the Moffitt Cancer Center. The mouse tissue microarray contained a total of 113 core samples, which included 10 uterine horns and 10 ovaries from both PBS and HCQ treated mice. As control specimens for the utilized antibodies, the TMA included mouse mammary tissue, […], small intestine, and lymph nodes from a PBS treated mouse. Lesions were analyzed from independent blocks. Slides were stained using a Leica Bond RX automated system (Leica Biosytems, Buffalo Grove, Ill.) following manufacturers instructions with proprietary reagents. Slides were deparaffinized on an automated system with Dewax Solution (Leica Biosystems). The antigen retrieval method used for Progesterone Receptor (PR) was enzymatic with Enzyme Solution 1 at 15 min (Leica), for vimentin and Estrogen Receptor (ER) was heat induced with Epitope Retrieval Solution 1 at 20 min (Leica), for cytokeratin 8 (CK-8) was heat induced with Epitope Retrieval Solution at 10 min (Leica), and for LC3B was heat-induced with Epitope Retrieval Solution 1 at 10 min (Leica Biosystems). All antibodies were diluted in Dako antibody diluent (Carpenteria, Calif.): PR (# ab131486, 1:500, Abcam, Cambridge, Mass.), vimentin (#5741 (D21H3), 1:100, Cell Signaling, Danvers, Mass.), ERα (# ab32063 ([…]), 1:200, Abcam, Cambridge, Mass.), Cytokeratin-8 (# ab53280 (E[…]), 1:200, Abcam, Cambridge, Mass.), and LC3B (# ab51520, 1:1,500, Abcam, Cambridge, Mass.) and incubated for 30 min. The Leica Bond Polymer Refine Detection System was used with a polymer incubation for 8 min. Hematoxylin was used as counterstain and slides were dehydrated and covered with a coverslip, following standard histological protocol.

- luminal epithelium of the uterine horn endometrium (H&E, TMA) ([1]; HCQ-treated mice): irregular pattern
- intensity or localization of IHC markers in ovaries ([1]; HCQ-treated relative to PBS-treated mice): no marked differences
Compound: CCN(CCO)CCCC(C)Nc1ccnc2cc(Cl)ccc12 (centres unmarked) [HCQ, hydroxychloroquine]
- number of lesions that developed vs PBS (endometriotic lesions; 60 mg/kg HCQ i.p., repeated after seven days, 14 days after induction, p=0.0007): significant reduction
- total number of lesions in treatment group (endometriotic lesions; 60 mg/kg HCQ, n=25 mice (PBS: 46 lesions in n=24)): 18
- macrophage numbers in peritoneal cavity (peritoneal macrophages): significant increase
- ERα and PR staining pattern or intensity in uterine horns ([1]; PBS vs HCQ-treated mice): no differences
- vimentin and CK8 localization in uterine horns ([1]; stromal and epithelial compartments, independently of HCQ treatment): appropriately localized
- LC3B expression in uterine horns (IHC) ([1]; stromal and epithelial compartments, relative to PBS): more intense
